The values below come from PubChem BioAssay (NCI).

Among the test systems are IGROV1 ovarian; MDA-N; MDA-MB-435; PC-3 prostate; LOX IMVI melanoma; SK-OV-3 ovarian; EKVX NSCLC; HOP-92 NSCLC; UACC-62 melanoma; NCI-H226 lung; UO-31 renal; T-47D breast; OVCAR-5 ovarian.
What all share (test): NCI tumour cell line growth inhibition, 48 h

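Dose response: 5 concentrations. Exposure: 48 h. Format: 96-well plates. Endpoint: linear interpolation; highest concentration if not reached. The concentration for full growth arrest is given as TGI.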

For `Cc1nc2c(=O)n3c4c(cccc4c2o1)CCC3`, the TGI in the assay with IGROV1 ovarian, with MDA-N, in the assay on MDA-MB-435, in the assay with PC-3 prostate, in the assay on LOX IMVI melanoma and in the assay with SK-OV-3 ovarian was over 100 µM in each case. For the same compound, the TGI in the assay with EKVX NSCLC, in the assay on HOP-92 NSCLC, in the assay on UACC-62 melanoma, in the assay with NCI-H226 lung, with UO-31 renal and with T-47D breast was over 100 µM throughout. Moreover, the TGI in the assay on OVCAR-5 ovarian was over 100 µM.
In the case of `CCOC(=O)/C(C#N)=C/c1ccc2c(c1)CC1(C2)Cc2cc(CC)c(C(C)O)cc2C1` (configuration not stated), the TGI in the assay on IGROV1 ovarian is 57 µM; in the assay on MDA-N it was 5.16 µM; in the assay on MDA-MB-435 it was 4.83 µM; in the assay on PC-3 prostate, 56.8 µM; in the assay with LOX IMVI melanoma, 22 µM; in the assay with SK-OV-3 ovarian it was 98.2 µM. Besides, the TGI was over 100 µM in the assay on EKVX NSCLC; 47.9 µM with HOP-92 NSCLC; 29.5 µM in the assay with UACC-62 melanoma; over 64.6 µM in the assay with NCI-H226 lung; 60.8 µM in the assay on UO-31 renal; over 100 µM in the assay with T-47D breast. The same compound registered a TGI in the assay on OVCAR-5 ovarian of over 93.1 µM.
With `CCOP(=O)(OCC)/C(C#N)=C/c1c[nH]c2ccccc12`, the TGI with IGROV1 ovarian, with MDA-N, with MDA-MB-435, in the assay with PC-3 prostate, in the assay with LOX IMVI melanoma and in the assay with SK-OV-3 ovarian was over 100 µM throughout. The TGI was over 100 µM in the assay with EKVX NSCLC; over 100 µM with HOP-92 NSCLC; over 100 µM in the assay on UACC-62 melanoma; over 100 µM with NCI-H226 lung; 77.4 µM with UO-31 renal; over 100 µM in the assay on T-47D breast. The same compound showed a TGI in the assay with OVCAR-5 ovarian of over 100 µM.
Take `Cc1c(C)c(S(=O)(=O)N(CCCCCON)OCCCN)c(C)c2c1OC(C)(C)CC2`: the TGI in the assay on IGROV1 ovarian came out at 23.4 µM; with MDA-N it was 27.3 µM; with MDA-MB-435, 24.8 µM; with PC-3 prostate it was 26.4 µM; in the assay with LOX IMVI melanoma it was 22.5 µM; in the assay with SK-OV-3 ovarian, 28.1 µM. Besides, the TGI was determined as 24.7 µM with EKVX NSCLC; 23 µM with HOP-92 NSCLC; 27.4 µM with UACC-62 melanoma; 36.7 µM with NCI-H226 lung; 30.2 µM in the assay on UO-31 renal; 16.8 µM in the assay with T-47D breast. The TGI in the assay on OVCAR-5 ovarian was 28.2 µM.
For `CC1OC(OC2C(Oc3cc(O)c4c(c3)O[C@H](c3ccc(O)cc3)CC4=O)OC(CO)C(O)C2O)C(O)C(O)C1O` (some centres not stated), the TGI in the assay with IGROV1 ovarian, in the assay on MDA-N, with MDA-MB-435, in the assay on PC-3 prostate, with LOX IMVI melanoma and in the assay on SK-OV-3 ovarian was over 100 µM throughout. For the same compound, the TGI in the assay on EKVX NSCLC, with HOP-92 NSCLC, in the assay with UACC-62 melanoma, in the assay on NCI-H226 lung, with UO-31 renal and in the assay with T-47D breast was over 100 µM each time. Further, the TGI in the assay with OVCAR-5 ovarian was over 100 µM.
As to `S=C1N=C(Cl)/C(=C\c2ccccc2)N1`, the TGI in the assay with IGROV1 ovarian, in the assay on MDA-N, in the assay on MDA-MB-435, in the assay with PC-3 prostate, with LOX IMVI melanoma and in the assay with SK-OV-3 ovarian was over 100 µM throughout. Moreover, the TGI in the assay with EKVX NSCLC, in the assay on HOP-92 NSCLC, with UACC-62 melanoma, in the assay with NCI-H226 lung, in the assay on UO-31 renal and with T-47D breast was over 100 µM throughout. This compound also returned a TGI in the assay with OVCAR-5 ovarian of over 100 µM.
As to `C[C@]12CC[C@H](O)CC1=CC[C@@H]1C2CC[C@]2(C)Nc3c(cnn3-c3ccc(F)cc3)CC12` (some centres not stated), the TGI with IGROV1 ovarian was over 100 µM; in the assay on MDA-N, over 100 µM; in the assay on MDA-MB-435, over 100 µM; in the assay with PC-3 prostate, over 100 µM; with LOX IMVI melanoma, over 100 µM; in the assay on SK-OV-3 ovarian, 57.3 µM. Further, the TGI is over 100 µM in the assay on EKVX NSCLC; 63.6 µM with HOP-92 NSCLC; over 100 µM with UACC-62 melanoma; over 92.7 µM with NCI-H226 lung; over 92.4 µM in the assay with UO-31 renal; over 100 µM with T-47D breast. Besides, the TGI with OVCAR-5 ovarian was over 100 µM.
On to `CC#CC(O)(C(=O)OC1CC2CCC(C1)N2C)C1CCCC1` (configuration not stated), for which the TGI in the assay with IGROV1 ovarian, in the assay on MDA-N, in the assay with MDA-MB-435, in the assay with PC-3 prostate, in the assay with LOX IMVI melanoma and with SK-OV-3 ovarian was over 100 µM throughout. In addition, the TGI in the assay with EKVX NSCLC, with HOP-92 NSCLC, in the assay with UACC-62 melanoma, in the assay with NCI-H226 lung, with UO-31 renal and with T-47D breast was over 100 µM in each case. In the assay with OVCAR-5 ovarian, this compound showed a TGI of over 100 µM.
Take `c1ccc(CC2(c3cc4ccccc4[nH]3)OCCO2)nc1`: the TGI in the assay on IGROV1 ovarian, in the assay on MDA-N, with MDA-MB-435, with PC-3 prostate, with LOX IMVI melanoma and with SK-OV-3 ovarian was over 100 µM throughout. The TGI in the assay with EKVX NSCLC, in the assay with HOP-92 NSCLC, with UACC-62 melanoma, in the assay with NCI-H226 lung, in the assay with UO-31 renal and in the assay with T-47D breast was over 100 µM each time. This compound also displayed a TGI in the assay with OVCAR-5 ovarian of over 100 µM.
